Our source for the IC50 values is patent publication US20260274829A1, “NEW E3 UBIQUITIN LIGASE LIGAND, PROTEIN DEGRADATION AGENT AND USE THEREOF” (GLUETACS THERAPEUTICS (SHANGHAI) CO., LTD., priority 2023, published 2026).

A value given as a limit tells only on which side of the number the result lay.

T1 sequence (Q96SW2 whole entry): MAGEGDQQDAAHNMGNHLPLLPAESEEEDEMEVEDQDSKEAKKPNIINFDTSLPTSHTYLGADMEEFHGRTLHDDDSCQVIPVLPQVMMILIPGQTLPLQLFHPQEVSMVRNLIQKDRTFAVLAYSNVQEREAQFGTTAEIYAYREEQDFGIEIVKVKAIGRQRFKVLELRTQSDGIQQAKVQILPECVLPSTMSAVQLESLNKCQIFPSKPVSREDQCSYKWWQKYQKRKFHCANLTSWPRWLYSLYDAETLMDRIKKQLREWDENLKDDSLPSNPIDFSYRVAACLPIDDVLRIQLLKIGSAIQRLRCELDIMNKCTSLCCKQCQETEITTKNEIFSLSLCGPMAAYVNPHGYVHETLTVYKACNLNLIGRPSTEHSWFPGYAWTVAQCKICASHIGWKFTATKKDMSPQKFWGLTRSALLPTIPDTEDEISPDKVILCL

The test addresses T1, human Cereblon WT GST-tagged protein (Homo sapiens, UniProt Q96SW2).
T1 construct: purchased CISBIO 64BDCRBNPEH
In words: CRBN binding, HTRF CEREBLON BINDING kit. The note with it: CRBN binding, HTRF CEREBLON BINDING kit. The method in brief:
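Binding inhibition was calculated from the 665/620 nm emission ratios, with blank wells and solvent wells as references. Test compounds competed for GST-tagged human Cereblon WT against a Thalidomide-Re reagent paired with GST Eu antibody. Plates were sealed and held at room temperature for 3 hours before the HTRF read.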
As usually defined, the IC50 is the concentration that gives 50% inhibition. Read a low IC50 as greater potency in that assay. The molecule `O=C1CCC(c2cncc(CN3C[C@H]4C[C@@H]3CN4c3ccc(-c4cc(F)c5c(c4)C(=O)N(C(C(=O)Nc4nccs4)c4ncn6c4CCC6)C5)cc3)c2)C(=O)N1` (stereo partly drawn) [GT-07391, 2-(6,7-dihydro-5H-pyrrolo[1,2-c]imidazol-1-yl)-2-(6-(4-((1R,4R)-5-((5-(2,6-dioxopiperidin-3-yl)pyridin-3-yl)methyl)-2,5-diazabicyclo[2.2.1]heptan-2-yl)phenyl)-4-fluoro-1-oxoisoindolin-2-yl)-N-(thiazol-2-yl)acetamide] came in with an IC50 of less than 500 nM.
As for `O=C1CCC(c2cc(CN3CCN(c4ccc(-c5cc(F)c6c(c5)C(=O)N(C(C(=O)Nc5nccs5)c5ncn7c5CCC7)C6)cc4)CC3)ccn2)C(=O)N1` (centres unmarked) [GT-07392, 2-(6,7-dihydro-5H-pyrrolo[1,2-c]imidazol-1-yl)-2-(6-(4-(4-((2-(2,6-dioxopiperidin-3-yl)pyridin-4-yl)methyl)piperazin-1-yl)phenyl)-4-fluoro-1-oxoisoindolin-2-yl)-N-(thiazol-2-yl)acetamide], the figure is 1000 to 1900 nM; as for `CN(Cc1cncc(C2CCC(=O)NC2=O)c1)C1CCN(c2ccc(-c3cc(F)c4c(c3)C(=O)N(C(C(=O)Nc3nccs3)c3ncn5c3CCC5)C4)cc2)CC1` (centres unmarked) [GT-07393, 2-(6,7-dihydro-5H-pyrrolo[1,2-c]imidazol-1-yl)-2-(6-(4-(4-(((5-(2,6-dioxopiperidin-3-yl)pyridin-3-yl)methyl)(methyl)amino)piperidin-1-yl)phenyl)-4-fluoro-1-oxoisoindolin-2-yl)-N-(thiazol-2-yl)acetamide], less than 500 nM.
As for `O=C1CCC(c2cncc(CN3CCN(c4ccc(-c5cc(F)c6c(c5)C(=O)N(C(C(=O)Nc5nccs5)c5ncn7c5CCC7)C6)cc4)CC3)c2)C(=O)N1` (centres unmarked) [GT-07472, 2-(6,7-dihydro-5H-pyrrolo[1,2-c]imidazol-1-yl)-2-(6-(4-(4-((5-(2,6-dioxopiperidin-3-yl)pyridin-3-yl)methyl)piperazin-1-yl)phenyl)-4-fluoro-1-oxoisoindolin-2-yl)-N-(thiazol-2-yl)acetamide], the figure is less than 500 nM; as for `CN(Cc1ccnc(C2CCC(=O)NC2=O)c1)C1CCN(c2ccc(-c3cc(F)c4c(c3)C(=O)N(C(C(=O)Nc3nccs3)c3ncn5c3CCC5)C4)cc2)CC1` (centres unmarked) [GT-07473, 2-(6,7-dihydro-5H-pyrrolo[1,2-c]imidazol-1-yl)-2-(6-(4-(4-(((2-(2,6-dioxopiperidin-3-yl)pyridin-4-yl)methyl)(methyl)amino)piperidin-1-yl)phenyl)-4-fluoro-1-oxoisoindolin-2-yl)-N-(thiazol-2-yl)acetamide], 500 to 1000 nM; as for `O=C1CCC(c2cnc(F)c(CN3CCN(c4ccc(-c5cc(F)c6c(c5)C(=O)N(C(C(=O)Nc5nccs5)c5ncn7c5CCC7)C6)cc4)CC3)c2)C(=O)N1` (centres unmarked) [GT-07490, 2-(6,7-dihydro-5H-pyrrolo[1,2-c]imidazol-1-yl)-2-(6-(4-(4-((5-(2,6-dioxopiperidin-3-yl)-2-fluoropyridin-3-yl)methyl)piperazin-1-yl)phenyl)-4-fluoro-1-oxoisoindolin-2-yl)-N-(thiazol-2-yl)acetamide], less than 500 nM.
As for `CN(Cc1cc(C2CCC(=O)NC2=O)cnc1F)C1CCN(c2ccc(-c3cc(F)c4c(c3)C(=O)N(C(C(=O)Nc3nccs3)c3ncn5c3CCC5)C4)cc2)CC1` (centres unmarked) [GT-07560, 2-(6,7-dihydro-5H-pyrrolo[1,2-c]imidazol-1-yl)-2-(6-(4-(4-(((5-(2,6-dioxopiperidin-3-yl)-2-fluoropyridin-3-yl)methyl)(methyl)amino)piperidin-1-yl)phenyl)-4-fluoro-1-oxoisoindolin-2-yl)-N-(thiazol-2-yl)acetamide], the figure is less than 500 nM.
`O=C1CCC(c2cnc(F)c(CN3C[C@H]4C[C@@H]3CN4c3ccc(-c4cc(F)c5c(c4)C(=O)N(C(C(=O)Nc4nccs4)c4ncn6c4CCC6)C5)cc3)c2)C(=O)N1` (stereo partly drawn) [GT-07562, 2-(6,7-dihydro-5H-pyrrolo[1,2-c]imidazol-1-yl)-2-(6-(4-((1R,4R)-5-((5-(2,6-dioxopiperidin-3-yl)-2-fluoropyridin-3-yl)methyl)-2,5-diazabicyclo[2.2.1]heptan-2-yl)phenyl)-4-fluoro-1-oxoisoindolin-2-yl)-N-(thiazol-2-yl)acetamide] returned an IC50 of less than 500 nM.
On to `Cc1cc(Nc2ncc(Cl)c(Nc3ccccc3S(=O)(=O)C(C)C)n2)c(OC(C)C)cc1C1CCN(Cc2cccc(N3CCC(=O)NC3=O)c2)CC1` [GT-07593, 1-(3-((4-(4-((5-chloro-4-((2-(isopropylsulfonyl)phenyl)amino)pyrimidin-2-yl)amino)-5-isopropoxy-2-methylphenyl)piperidin-1-yl)methyl)phenyl)dihydropyrimidine-2,4(1H,3H)-dione], for which the IC50 fell in the range of 500 to 1000 nM.
As for `Cc1cc(Nc2ncc(Cl)c(Nc3ccccc3S(=O)(=O)C(C)C)n2)c(OC(C)C)cc1C1CCN(Cc2cc(C3CCC(=O)NC3=O)cnc2F)CC1` (centres unmarked) [GT-07598, 3-(5-((4-(4-((5-chloro-4-((2-(isopropylsulfonyl)phenyl)amino)pyrimidin-2-yl)amino)-5-isopropoxy-2-methylphenyl)piperidin-1-yl)methyl)-6-fluoropyridin-3-yl)piperidine-2,6-dione], the figure is 500 to 1000 nM; as for `Cc1cc(Nc2ncc(Cl)c(Nc3ccccc3S(=O)(=O)C(C)C)n2)c(OC(C)C)cc1C1CCN(Cc2cncc(C3CCC(=O)NC3=O)c2)CC1` (centres unmarked) [GT-07601, 3-(5-((4-(4-((5-chloro-4-((2-(isopropylsulfonyl)phenyl)amino)pyrimidin-2-yl)amino)-5-isopropoxy-2-methylphenyl)piperidin-1-yl)methyl)pyridin-3-yl)piperidine-2,6-dione], 1000 to 1900 nM; as for `COc1cc(N2CCC(N3CCN(Cc4ccc(C5CCC(=O)NC5=O)cc4)CC3)CC2)ccc1Nc1ncc(Cl)c(Nc2ccccc2P(C)(C)=O)n1` (centres unmarked) [GT-07602, 3-(4-((4-(1-(4-((5-chloro-4-((2-(dimethylphosphoryl)phenyl)amino)pyrimidin-2-yl)amino)-3-methoxyphenyl)piperidin-4-yl)piperazin-1-yl)methyl)phenyl)piperidine-2,6-dione], less than 500 nM.
As for `COc1cc(N2CCC(N3CCN(Cc4cccc(N5CCC(=O)NC5=O)c4)CC3)CC2)ccc1Nc1ncc(Cl)c(Nc2ccccc2P(C)(C)=O)n1` [GT-07604, 1-(3-((4-(1-(4-((5-chloro-4-((2-(dimethylphosphoryl)phenyl)amino)pyrimidin-2-yl)amino)-3-methoxyphenyl)piperidin-4-yl)piperazin-1-yl)methyl)phenyl)dihydropyrimidine-2,4(1H,3H)-dione], the figure is 1000 to 1900 nM; as for `COc1cc(N2CCC(N3CCN(Cc4cccc(NC5CCC(=O)NC5=O)c4)CC3)CC2)ccc1Nc1ncc(Cl)c(Nc2ccccc2P(C)(C)=O)n1` (centres unmarked) [GT-07605, 3-((3-((4-(1-(4-((5-chloro-4-((2-(dimethylphosphoryl)phenyl)amino)pyrimidin-2-yl)amino)-3-methoxyphenyl)piperidin-4-yl)piperazin-1-yl)methyl)phenyl)amino)piperidine-2,6-dione], 1000 to 1900 nM; as for `COc1cc(N2CCC(N3CCN(Cc4cc(C5CCC(=O)NC5=O)cnc4F)CC3)CC2)ccc1Nc1ncc(Cl)c(Nc2ccccc2P(C)(C)=O)n1` (centres unmarked) [GT-07611, 3-(5-((4-(1-(4-((5-chloro-4-((2-(dimethylphosphoryl)phenyl)amino)pyrimidin-2-yl)amino)-3-methoxyphenyl)piperidin-4-yl)piperazin-1-yl)methyl)-6-fluoropyridin-3-yl)piperidine-2,6-dione], 500 to 1000 nM.
On to `COc1cc(N2CCC(N3CCN(Cc4ccc(C5CCC(=O)NC5=O)cn4)CC3)CC2)ccc1Nc1ncc(Cl)c(Nc2ccccc2P(C)(C)=O)n1` (centres unmarked) [GT-07613, 3-(6-((4-(1-(4-((5-chloro-4-((2-(dimethylphosphoryl)phenyl)amino)pyrimidin-2-yl)amino)-3-methoxyphenyl)piperidin-4-yl)piperazin-1-yl)methyl)pyridin-3-yl)piperidine-2,6-dione], for which the IC50 is 500 to 1000 nM.
Next, `COc1cc(N2CCC(N3CCN(Cc4cncc(C5CCC(=O)NC5=O)c4)CC3)CC2)ccc1Nc1ncc(Cl)c(Nc2ccccc2P(C)(C)=O)n1` (centres unmarked) [GT-07614, 3-(5-((4-(1-(4-((5-chloro-4-((2-(dimethylphosphoryl)phenyl)amino)pyrimidin-2-yl)amino)-3-methoxyphenyl)piperidin-4-yl)piperazin-1-yl)methyl)pyridin-3-yl)piperidine-2,6-dione]: 1000 to 1900 nM.
As for `COc1cc(N2CCC(N(C)Cc3cccc(N4CCC(=O)NC4=O)c3)CC2)ccc1Nc1ncc(Cl)c(Nc2ccccc2P(C)(C)=O)n1` [GT-07616, 1-(3-(((1-(4-((5-chloro-4-((2-(dimethylphosphoryl)phenyl)amino)pyrimidin-2-yl)amino)-3-methoxyphenyl)piperidin-4-yl)(methyl)amino)methyl)phenyl)dihydropyrimidine-2,4(1H,3H)-dione], the figure is 1000 to 1900 nM; as for `COc1cc(N2CCC(N(C)Cc3ccc(N4CCC(=O)NC4=O)cn3)CC2)ccc1Nc1ncc(Cl)c(Nc2ccccc2P(C)(C)=O)n1` [GT-07617, 1-(6-(((1-(4-((5-chloro-4-((2-(dimethylphosphoryl)phenyl)amino)pyrimidin-2-yl)amino)-3-methoxyphenyl)piperidin-4-yl)(methyl)amino)methyl)pyridin-3-yl)dihydropyrimidine-2,4(1H,3H)-dione], 1000 to 1900 nM.
As for `COc1cc(N2CCC(N(C)Cc3cncc(N4CCC(=O)NC4=O)c3)CC2)ccc1Nc1ncc(Cl)c(Nc2ccccc2P(C)(C)=O)n1` [GT-07695, 1-(5-(((1-(4-((5-chloro-4-((2-(dimethylphosphoryl)phenyl)amino)pyrimidin-2-yl)amino)-3-methoxyphenyl)piperidin-4-yl)(methyl)amino)methyl)pyridin-3-yl)dihydropyrimidine-2,4(1H,3H)-dione], the figure is 1000 to 1900 nM.
